This passage reports inhibition and Ki results from ChEMBL document CHEMBL3862033 (J Med Chem, 2016).

What is called inhibition is the relative decrease from the control value, in per cent. What is called Ki is the equilibrium dissociation constant of an inhibitor or competing ligand from its target.

The target in experiment [1] is T1, 5-hydroxytryptamine receptor 2B (Homo sapiens, UniProt P41595). The note with it: HEK293, at 10 µM.
The target in experiment [2] is 5-hydroxytryptamine receptor 3A (Homo sapiens, UniProt P46098). Briefly: Displacement of [3H]GR65630 from human 5-HT3 receptor expressed in HEK-T cell membranes incubated for 90 mins under dark condition by microbeta scintillation counting method. On the technique in general: Displacement assays read how much labelled ligand stays bound in the presence of the test substance.

Experiment [3] addresses 5-hydroxytryptamine receptor 1E (Homo sapiens) (UniProt P28566). Briefly: Displacement of [3H]5-HT from human 5-HT1E receptor expressed in HEK cell membranes at 10 uM incubated for 90 mins under dark condition by microbeta scintillation counting method relative to control. The conditions noted are these: HEK293.
Experiment [4] concerns the target 5-hydroxytryptamine receptor 4 (Homo sapiens) (UniProt Q13639). Briefly: Displacement of [3H]GR113808 from human 5-HT4 receptor at 10 uM incubated for 90 mins under dark condition by microbeta scintillation counting method relative to control.
Experiment [5] has as its target T2, 5-hydroxytryptamine receptor 2C (Homo sapiens, UniProt P28335).
T2 sequence (P28335 whole entry): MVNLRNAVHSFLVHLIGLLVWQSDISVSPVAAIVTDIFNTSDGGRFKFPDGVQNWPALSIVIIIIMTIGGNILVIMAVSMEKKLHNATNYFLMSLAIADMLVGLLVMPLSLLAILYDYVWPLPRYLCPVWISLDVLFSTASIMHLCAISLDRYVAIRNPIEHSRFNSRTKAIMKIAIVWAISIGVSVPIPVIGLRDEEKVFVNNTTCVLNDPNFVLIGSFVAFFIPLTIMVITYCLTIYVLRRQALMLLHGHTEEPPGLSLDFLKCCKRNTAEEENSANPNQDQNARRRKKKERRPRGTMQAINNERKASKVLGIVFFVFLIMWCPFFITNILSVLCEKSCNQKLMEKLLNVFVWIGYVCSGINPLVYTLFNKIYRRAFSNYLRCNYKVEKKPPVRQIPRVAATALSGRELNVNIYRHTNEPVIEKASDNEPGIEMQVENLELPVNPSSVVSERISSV
Briefly: Displacement of [3H]mesulergine from human 5-HT2CR expressed in Flp-In HEK cell membranes incubated for 90 mins under dark condition by microbeta scintillation counting method. Also noted: species or system HEK293.

Experiment [6] has as its target T3, Adenosine receptor A1 (Homo sapiens, UniProt P30542).
T3 sequence (P30542 whole entry): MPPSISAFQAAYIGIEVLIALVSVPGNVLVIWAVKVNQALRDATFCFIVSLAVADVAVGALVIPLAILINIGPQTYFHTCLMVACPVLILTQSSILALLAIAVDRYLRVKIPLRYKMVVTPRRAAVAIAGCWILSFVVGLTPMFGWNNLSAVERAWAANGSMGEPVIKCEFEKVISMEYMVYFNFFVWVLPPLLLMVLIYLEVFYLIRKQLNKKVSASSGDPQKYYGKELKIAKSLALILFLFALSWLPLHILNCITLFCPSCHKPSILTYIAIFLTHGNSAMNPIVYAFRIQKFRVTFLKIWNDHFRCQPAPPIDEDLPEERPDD
Briefly: Displacement of [3H]N6-phenylisopropyladenosine from recombinant human A1AR expressed in CHO cell membranes after 60 mins by liquid scintillation counting method.

Experiment [7] has as its target T4, 5-hydroxytryptamine receptor 2C (Homo sapiens) (UniProt P28335).
T4 sequence (whole entry): T2 sequence (P28335 whole entry)
Briefly: Displacement of [3H]mesulergine from human 5-HT2CR expressed in Flp-In HEK cell membranes at 10 uM incubated for 90 mins under dark condition by microbeta scintillation counting method relative to control. The note with it: HEK293.

Experiment [8] concerns the target T5, 5-hydroxytryptamine receptor 1A (Homo sapiens) (UniProt P08908).
T5 sequence (whole entry): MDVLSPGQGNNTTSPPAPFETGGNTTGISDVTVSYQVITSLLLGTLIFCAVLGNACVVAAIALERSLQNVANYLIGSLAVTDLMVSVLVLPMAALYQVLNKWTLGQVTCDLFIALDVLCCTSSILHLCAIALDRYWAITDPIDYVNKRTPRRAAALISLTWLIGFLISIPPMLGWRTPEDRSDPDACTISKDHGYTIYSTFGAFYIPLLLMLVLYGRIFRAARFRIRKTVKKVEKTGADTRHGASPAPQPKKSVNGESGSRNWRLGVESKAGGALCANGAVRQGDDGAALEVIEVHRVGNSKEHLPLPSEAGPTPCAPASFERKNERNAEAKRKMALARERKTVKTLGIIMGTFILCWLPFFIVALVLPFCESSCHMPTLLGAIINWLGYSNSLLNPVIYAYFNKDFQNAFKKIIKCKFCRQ
Briefly: Displacement of [3H]WAY100635 from human 5-HT1AR expressed in CHO cell membranes at 10 uM incubated for 90 mins under dark condition by microbeta scintillation counting method relative to control.

In experiment [9] the target is T6, 5-hydroxytryptamine receptor 2A (Homo sapiens, UniProt P28223). Briefly: Displacement of [3H]ketanserin from human 5-HT2A receptor expressed in HEK-T cell membranes at 10 uM incubated for 90 mins under dark condition by microbeta scintillation counting method relative to control.
For experiment [10], the target named is 5-hydroxytryptamine receptor 1B (Homo sapiens) (UniProt P28222). Briefly: Displacement of [3H]5-CT from human 5-HT1BR expressed in HEK cell membranes at 10 uM incubated for 90 mins under dark condition by microbeta scintillation counting method relative to control. The conditions noted are these: HEK293.
The target of experiment [11] is 5-hydroxytryptamine receptor 6 (Homo sapiens) (UniProt P50406). Briefly: Displacement of [3H]LSD from human 5-HT6 receptor expressed in HEK cell membranes at 10 uM incubated for 90 mins under dark condition by microbeta scintillation counting method relative to control. The conditions noted are these: HEK293.
Experiment [12] deals with 5-hydroxytryptamine receptor 1D (Homo sapiens) (UniProt P28221). Briefly: Displacement of [3H]5-CT from human 5-HT1D receptor expressed in HEK-T cell membranes at 10 uM incubated for 90 mins under dark condition by microbeta scintillation counting method relative to control.
Experiment [13] deals with 5-hydroxytryptamine receptor 7 (Homo sapiens) (UniProt P34969). Briefly: Displacement of [3H]LSD from human 5-HT7A receptor expressed in HEK cell membranes at 10 uM incubated for 90 mins under dark condition by microbeta scintillation counting method relative to control. The conditions noted are these: HEK293.
Experiment [14] concerns the target T6, 5-hydroxytryptamine receptor 2A. Briefly: Displacement of [3H]ketanserin from human 5-HT2A receptor expressed in HEK-T cell membranes incubated for 90 mins under dark condition by microbeta scintillation counting method.
For experiment [15], the target named is Adenosine receptor A2a (Homo sapiens, UniProt P29274). Briefly: Displacement of [3 H]2-[p-(2-carboxyethyl)phenyl-ethylamino]-5'-N-ethylcarboxamidoadenosine from recombinant human adenosine receptor A2A expressed in HEK293 cell membranes at 10 uM after 60 mins by liquid scintillation counting method relative to control.
In experiment [16] the target is T1, 5-hydroxytryptamine receptor 2B. Briefly: biochemical. The experiment is classed as cell-based, HEK293.
Experiment [17] concerns the target 5-hydroxytryptamine receptor 5A (Homo sapiens) (UniProt P47898). Briefly: Displacement of [3H]LSD from human 5-HT5A receptor expressed in Flp-In-CHO cell membranes incubated for 90 mins under dark condition by microbeta scintillation counting method relative to control. Also noted: concentration or dose not given beside the values.

Structures are written as SMILES. Bounds are passed on as bounds.

T6 sequence (P28223 whole entry): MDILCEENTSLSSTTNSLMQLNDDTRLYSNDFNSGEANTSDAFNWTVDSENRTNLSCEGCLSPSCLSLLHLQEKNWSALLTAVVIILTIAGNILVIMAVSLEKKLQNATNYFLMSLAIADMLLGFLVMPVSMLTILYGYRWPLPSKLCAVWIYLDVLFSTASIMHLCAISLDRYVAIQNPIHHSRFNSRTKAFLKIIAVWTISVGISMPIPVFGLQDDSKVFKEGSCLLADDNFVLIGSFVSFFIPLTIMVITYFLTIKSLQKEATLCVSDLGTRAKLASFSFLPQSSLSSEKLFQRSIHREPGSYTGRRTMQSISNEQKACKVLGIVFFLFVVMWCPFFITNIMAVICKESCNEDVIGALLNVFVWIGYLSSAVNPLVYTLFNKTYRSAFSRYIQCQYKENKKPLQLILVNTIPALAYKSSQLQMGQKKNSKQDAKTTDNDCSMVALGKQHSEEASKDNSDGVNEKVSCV
T1 sequence (P41595 whole entry): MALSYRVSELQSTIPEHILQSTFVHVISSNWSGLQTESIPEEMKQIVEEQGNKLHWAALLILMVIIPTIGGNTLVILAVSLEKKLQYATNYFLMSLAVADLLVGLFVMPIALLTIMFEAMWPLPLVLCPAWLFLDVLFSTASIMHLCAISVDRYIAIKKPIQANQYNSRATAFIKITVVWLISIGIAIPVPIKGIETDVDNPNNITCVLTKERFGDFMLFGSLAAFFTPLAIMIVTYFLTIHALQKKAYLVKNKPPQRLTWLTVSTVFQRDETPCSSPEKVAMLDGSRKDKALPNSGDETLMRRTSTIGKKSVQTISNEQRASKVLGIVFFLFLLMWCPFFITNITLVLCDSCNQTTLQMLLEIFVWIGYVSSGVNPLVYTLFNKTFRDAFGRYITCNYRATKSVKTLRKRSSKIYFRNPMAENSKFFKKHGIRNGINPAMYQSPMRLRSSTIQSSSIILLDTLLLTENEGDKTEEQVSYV
Chain of 5-hydroxytryptamine receptor 1B (Homo sapiens) (P28222 whole entry): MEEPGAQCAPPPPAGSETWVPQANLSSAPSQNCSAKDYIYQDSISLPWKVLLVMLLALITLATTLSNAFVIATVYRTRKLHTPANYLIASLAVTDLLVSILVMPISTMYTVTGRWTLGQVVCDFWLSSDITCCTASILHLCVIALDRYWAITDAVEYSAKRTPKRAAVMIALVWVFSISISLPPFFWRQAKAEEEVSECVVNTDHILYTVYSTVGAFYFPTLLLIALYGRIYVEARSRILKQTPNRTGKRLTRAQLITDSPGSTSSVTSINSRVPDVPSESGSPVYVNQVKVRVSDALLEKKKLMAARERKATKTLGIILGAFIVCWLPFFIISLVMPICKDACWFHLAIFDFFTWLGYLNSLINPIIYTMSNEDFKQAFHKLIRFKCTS
Chain of 5-hydroxytryptamine receptor 3A (P46098 whole entry): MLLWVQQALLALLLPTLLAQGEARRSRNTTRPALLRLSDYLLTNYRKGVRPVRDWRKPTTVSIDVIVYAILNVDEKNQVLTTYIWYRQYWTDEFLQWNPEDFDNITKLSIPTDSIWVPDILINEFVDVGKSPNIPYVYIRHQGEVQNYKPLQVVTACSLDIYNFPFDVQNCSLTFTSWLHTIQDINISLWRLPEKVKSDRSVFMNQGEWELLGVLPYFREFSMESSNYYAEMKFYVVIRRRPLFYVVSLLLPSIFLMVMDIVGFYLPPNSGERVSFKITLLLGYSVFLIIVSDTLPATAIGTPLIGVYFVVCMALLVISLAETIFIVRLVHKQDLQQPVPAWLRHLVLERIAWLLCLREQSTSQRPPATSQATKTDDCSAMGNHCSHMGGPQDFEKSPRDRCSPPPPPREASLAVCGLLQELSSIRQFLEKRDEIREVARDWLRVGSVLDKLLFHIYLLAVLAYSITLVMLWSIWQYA
Chain of 5-hydroxytryptamine receptor 1D (Homo sapiens) (P28221 whole entry): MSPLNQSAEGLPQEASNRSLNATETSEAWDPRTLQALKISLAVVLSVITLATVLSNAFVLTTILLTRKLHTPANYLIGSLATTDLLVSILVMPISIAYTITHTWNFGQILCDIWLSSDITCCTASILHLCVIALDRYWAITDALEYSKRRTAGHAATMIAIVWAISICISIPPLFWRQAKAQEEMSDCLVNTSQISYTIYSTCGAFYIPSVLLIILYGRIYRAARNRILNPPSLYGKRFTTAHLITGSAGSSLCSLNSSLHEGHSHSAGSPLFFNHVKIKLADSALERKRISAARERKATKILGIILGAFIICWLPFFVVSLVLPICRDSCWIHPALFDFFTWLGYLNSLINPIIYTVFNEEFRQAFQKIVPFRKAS
Chain of 5-hydroxytryptamine receptor 6 (Homo sapiens) (P50406 whole entry): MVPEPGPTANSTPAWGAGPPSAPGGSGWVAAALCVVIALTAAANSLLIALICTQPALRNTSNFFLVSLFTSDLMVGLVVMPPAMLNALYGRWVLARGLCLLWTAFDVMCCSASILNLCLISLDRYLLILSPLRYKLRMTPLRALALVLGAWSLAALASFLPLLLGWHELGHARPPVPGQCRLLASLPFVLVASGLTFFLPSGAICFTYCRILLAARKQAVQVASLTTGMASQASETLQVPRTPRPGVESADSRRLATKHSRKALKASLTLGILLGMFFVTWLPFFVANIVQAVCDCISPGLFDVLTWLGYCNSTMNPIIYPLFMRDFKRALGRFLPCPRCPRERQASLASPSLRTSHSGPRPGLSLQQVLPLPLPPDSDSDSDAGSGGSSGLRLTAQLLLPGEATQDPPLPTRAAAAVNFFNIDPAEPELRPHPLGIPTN
Chain of 5-hydroxytryptamine receptor 1E (Homo sapiens) (P28566 whole entry): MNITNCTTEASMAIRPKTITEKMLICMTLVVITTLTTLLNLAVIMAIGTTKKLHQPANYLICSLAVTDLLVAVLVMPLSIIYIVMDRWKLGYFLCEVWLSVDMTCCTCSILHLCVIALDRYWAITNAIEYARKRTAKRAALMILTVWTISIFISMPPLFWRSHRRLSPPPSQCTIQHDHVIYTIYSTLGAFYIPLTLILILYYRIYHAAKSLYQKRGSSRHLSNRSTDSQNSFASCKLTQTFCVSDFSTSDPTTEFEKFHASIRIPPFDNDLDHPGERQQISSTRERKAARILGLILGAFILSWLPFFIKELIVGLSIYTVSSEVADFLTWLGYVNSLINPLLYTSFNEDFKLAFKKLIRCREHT
Chain of 5-hydroxytryptamine receptor 5A (Homo sapiens) (P47898 whole entry): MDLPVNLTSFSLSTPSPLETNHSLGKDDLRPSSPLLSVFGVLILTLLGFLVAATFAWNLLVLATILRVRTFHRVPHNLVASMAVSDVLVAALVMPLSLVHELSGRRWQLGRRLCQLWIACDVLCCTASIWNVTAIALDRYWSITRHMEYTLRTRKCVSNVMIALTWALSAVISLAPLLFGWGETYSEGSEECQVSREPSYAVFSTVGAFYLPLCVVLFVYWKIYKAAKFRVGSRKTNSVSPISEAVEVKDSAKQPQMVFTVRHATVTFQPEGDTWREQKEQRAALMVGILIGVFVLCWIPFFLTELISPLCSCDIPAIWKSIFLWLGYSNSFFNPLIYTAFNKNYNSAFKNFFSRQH
Chain of 5-hydroxytryptamine receptor 4 (Homo sapiens) (Q13639 whole entry): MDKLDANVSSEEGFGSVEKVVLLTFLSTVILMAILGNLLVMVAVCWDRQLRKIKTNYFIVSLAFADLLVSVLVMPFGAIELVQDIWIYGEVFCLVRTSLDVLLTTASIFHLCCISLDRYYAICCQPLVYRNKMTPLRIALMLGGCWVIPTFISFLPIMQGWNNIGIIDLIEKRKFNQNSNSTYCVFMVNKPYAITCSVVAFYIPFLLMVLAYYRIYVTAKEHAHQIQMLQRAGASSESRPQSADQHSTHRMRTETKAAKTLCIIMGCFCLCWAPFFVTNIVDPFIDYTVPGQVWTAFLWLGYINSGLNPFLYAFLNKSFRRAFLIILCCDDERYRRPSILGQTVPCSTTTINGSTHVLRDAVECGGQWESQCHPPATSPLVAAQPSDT
Chain of 5-hydroxytryptamine receptor 7 (Homo sapiens) (P34969 whole entry): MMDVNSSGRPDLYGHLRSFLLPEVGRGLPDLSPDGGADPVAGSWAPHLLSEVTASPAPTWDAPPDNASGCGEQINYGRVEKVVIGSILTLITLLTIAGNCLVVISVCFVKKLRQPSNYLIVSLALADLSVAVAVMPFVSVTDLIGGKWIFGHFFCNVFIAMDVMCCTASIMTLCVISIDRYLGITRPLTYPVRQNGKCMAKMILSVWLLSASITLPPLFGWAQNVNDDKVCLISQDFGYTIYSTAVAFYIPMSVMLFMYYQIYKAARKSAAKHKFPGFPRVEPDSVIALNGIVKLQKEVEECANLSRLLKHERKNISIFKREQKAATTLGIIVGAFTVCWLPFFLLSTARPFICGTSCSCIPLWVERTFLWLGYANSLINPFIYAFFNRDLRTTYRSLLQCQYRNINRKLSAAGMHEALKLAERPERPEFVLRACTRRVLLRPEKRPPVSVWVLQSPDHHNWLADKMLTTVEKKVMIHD
Chain of Adenosine receptor A2a (P29274 whole entry): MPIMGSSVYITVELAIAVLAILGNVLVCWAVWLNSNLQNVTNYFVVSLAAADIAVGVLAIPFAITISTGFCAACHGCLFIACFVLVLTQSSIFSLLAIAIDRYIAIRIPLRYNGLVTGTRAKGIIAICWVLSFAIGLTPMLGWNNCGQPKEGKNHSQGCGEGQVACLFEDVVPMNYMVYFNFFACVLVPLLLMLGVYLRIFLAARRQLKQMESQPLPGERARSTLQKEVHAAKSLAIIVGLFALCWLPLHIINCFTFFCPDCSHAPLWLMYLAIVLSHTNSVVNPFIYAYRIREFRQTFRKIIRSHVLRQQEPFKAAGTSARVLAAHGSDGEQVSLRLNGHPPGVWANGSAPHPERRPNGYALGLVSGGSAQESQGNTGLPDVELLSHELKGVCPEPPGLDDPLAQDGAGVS

Turning to `O[C@@H]1[C@H](O)[C@@H]2C[C@@H]2[C@H]1n1cnc2c(NCc3cccc(Cl)c3)nc(Cl)nc21`, the inhibition in [1] is more than 50%; in experiment [3] it was less than 50%; in experiment [4] it was less than 50%; in experiment [7], more than 50%; in [8], less than 50%; in experiment [9], less than 10%. Moreover, the inhibition in experiment [10] is less than 50%; in [11], less than 50%; in [12] it was less than 50%; in [13], less than 50%; in experiment [15] it was more than 50%; in [17] it was less than 50%. The Ki in [2] was 3.26 µM; in experiment [5] it was 4.1 µM; in [6], 1600 nM; in experiment [14], more than 10 µM; in experiment [16], 2390 nM.
